From patent publication US8623859B2, “Bradykinin B1 antagonists” (Evotec AG, priority 2008, dated 2014)
pIC50: −log10 of the molar value. Counter-ions that a name gives are not always drawn.

molecular target: T1, human B1 (Homo sapiens, UniProt P46663); assay: Calcium flux assay for Bradykinin B1 antagonist, CHO-K1 cell line expressing human B1; type: cell-based; conditions: CHO-K1 cells expressing human B1, agonist Lys-(Des-Arg)-Bradykinin, read-out: Potency (IC50 value against human B1)
T1 construct: host or cells: CHO-K1
T1 sequence (P46663 1-353): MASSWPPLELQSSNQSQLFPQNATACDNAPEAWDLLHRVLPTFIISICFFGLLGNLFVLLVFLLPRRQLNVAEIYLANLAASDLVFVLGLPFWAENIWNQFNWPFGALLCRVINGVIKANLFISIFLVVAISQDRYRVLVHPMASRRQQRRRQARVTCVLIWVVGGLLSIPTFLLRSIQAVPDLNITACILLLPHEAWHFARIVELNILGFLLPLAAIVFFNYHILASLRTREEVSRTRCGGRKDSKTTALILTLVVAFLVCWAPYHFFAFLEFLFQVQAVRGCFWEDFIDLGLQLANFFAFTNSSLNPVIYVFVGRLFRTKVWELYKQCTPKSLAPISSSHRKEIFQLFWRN
How it was run: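 Inhibition of B1 agonist-evoked intracellular Ca2+ rise was followed by continuous fluorescence at 538 nm, with integrated, background-normalized signals plotted versus log compound concentration. Test compounds (eight 10-fold dilutions, triplicate, 1% DMSO final) were added 30 min at 25° C beforehand to Fluo-4AM-loaded human B1 CHO-K1 cells in pH 7.4 assay buffer.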

Structure (SMILES)	pIC50
COc1cc(C)c(S(=O)(=O)N(Cc2cc(C(=O)N(C)Cc3ccc(C4=NCCN4)cc3)co2)C2CC2)c(C)c1 [Ex 83, 5-({cyclopropyl[(4-methoxy-2,6-dimethylphenyl)sulfonyl]amino}methyl)-N-[4-(4,5-dihydro-1H-imidazol-2-yl)benzyl]-N-methylfuran-3-carboxamide trifluoroacetate]	7.00 to 8.00
COc1cc(C)c(S(=O)(=O)N(Cc2cc(C(=O)N(C)CCc3ccc(C4=NCCN4)cc3)co2)C2CC2)c(C)c1 [Ex 84, 5-({cyclopropyl[(4-methoxy-2,6-dimethylphenyl)sulfonyl]amino}methyl)-N-{2-[4-(4,5-dihydro-1H-imidazol-2-yl)phenyl]ethyl}-N-methylfuran-3-carboxamide trifluoroacetate]	> 8.00
COc1cc(C)c(S(=O)(=O)N(C)C(C)c2cc(C(=O)NCCc3ccc(C4=NCCN4)cc3)co2)c(C)c1 (stereo not shown) [Ex 85, N-{2-[4-(4,5-dihydro-1H-imidazol-2-yl)phenyl]ethyl}-5-(1-{[(4-methoxy-2,6-dimethylphenyl)sulfonyl](methyl)amino}ethyl)furan-3-carboxamide trifluoroacetamide]	6.00 to 7.00
COc1cc(C)c(S(=O)(=O)N(C)Cc2cc(C(=O)NCCc3ccc(C4=NCCN4)cc3)co2)c(CO)c1 [Ex 86, N-{2-[4-(4,5-Dihydro-1H-imidazol-2-yl)phenyl]ethyl}-5-{[{[2-(hydroxymethyl)-4-methoxy-6-methylphenyl]sulfonyl}(methyl)amino]methyl}furan-3-carboxamide trifluoroacetate]	6.00 to 7.00
Cc1cc(O)cc(C)c1S(=O)(=O)N(C)Cc1cc(C(=O)N(C)CCc2ccc(C3=NCCN3)cc2)co1 [Ex 87, N-{2-[4-(4,5-Dihydro-1H-imidazol-2-yl)phenyl]ethyl}-5-({[(4-hydroxy-2,6-dimethylphenyl)sulfonyl](methyl)amino}methyl)-N-methylfuran-3-carboxamide, trifluoroacetate]	7.00 to 8.00
COc1cc(C)c(S(=O)(=O)N(C)Cc2cc(C(=O)N(C)Cc3ccc(C(C)N4CCCC4)cc3)co2)c(C)c1 (stereo not shown) [Ex 88, 5-({[(4-Methoxy-2,6-dimethylphenyl)sulfonyl](methyl)amino}methyl)-N-methyl-N-[4-(1-pyrrolidin-1-ylethyl)benzyl]furan-3-carboxamide trifluoroacetate]	6.00 to 7.00
COc1cc(C)c(S(=O)(=O)N(Cc2cc(C(=O)N3CCN(CC4CCN(C)CC4)CC3)co2)C2CC2)c(C)c1 [Ex 89, N-Cyclopropyl-4-methoxy-2,6-dimethyl-N-{[4-({4-[(1-methylpiperidin-4-yl)methyl]piperazin-1-yl}carbonyl)furan-2-yl]methyl}benzenesulfonamide]	> 8.00
COc1cc(C)c(S(=O)(=O)N(C)Cc2cc(C(=O)NC(C)c3ccc(CN4CCCC4)cc3)co2)c(C)c1 (stereo not shown) [Ex 90, 5-({[(4-Methoxy-2,6-dimethylphenyl)sulfonyl](methyl)amino}methyl)-N-{1-[4-(pyrrolidin-1-ylmethyl)phenyl]ethyl}furan-3-carboxamide]	6.00 to 7.00
COc1cc(C)c(S(=O)(=O)N(C)Cc2cc(C(=O)NC(C)c3ccc(CN4CCC(O)C4)cc3)co2)c(C)c1 (stereo not shown) [Ex 91, N-(1-{4-[(3-Hydroxypyrrolidin-1-yl)methyl]phenyl}ethyl)-5-({[(4-methoxy-2,6-dimethylphenyl)sulfonyl](methyl)amino}methyl)furan-3-carboxamide]	6.00 to 7.00
COc1cc(C)c(S(=O)(=O)N(C)Cc2cc(C(=O)NCCc3ccc(CN4CC[C@H](N(C)C)C4)cc3)co2)c(C)c1 [Ex 92, N-[2-(4-{[(3S)-3-(Dimethylamino)pyrrolidin-1-yl]methyl}phenyl)ethyl]-5-({[(4-methoxy-2,6-dimethylphenyl)sulfonyl](methyl)amino}methyl)furan-3-carboxamide, trifluoroacetate]	6.00 to 7.00
COc1cc(C)c(S(=O)(=O)N(C)Cc2cc(C(=O)NCc3ccc(C4=NCC(C)(C)N4)cc3)co2)c(C)c1 [Ex 93, N-[4-(5,5-Dimethyl-4,5-dihydro-1H-imidazol-2-yl)benzyl]-5-({[(4-methoxy-2,6-dimethylphenyl)sulfonyl](methyl)amino}methyl)furan-3-carboxamide trifluoroacetate]	7.00 to 8.00
COc1cc(C)c(S(=O)(=O)N(C)Cc2cc(C(=O)NCCc3ccc(C4=NCC(C)(C)N4)cc3)co2)c(C)c1 [Ex 94, N-{2-[4-(5,5-Dimethyl-4,5-dihydro-1H-imidazol-2-yl)phenyl]ethyl}-5-({[(4-methoxy-2,6-dimethylphenyl)sulfonyl](methyl)amino}methyl)furan-3-carboxamide trifluoroacetate]	> 8.00
COc1cc(C)c(S(=O)(=O)N(C)Cc2cc(C(=O)N3CCCC(c4ccc(CN5CCCC5)cc4)C3)co2)c(C)c1 (stereo not shown) [Ex 95, 4-Methoxy-N,2,6-trimethyl-N-{[4-({3-[4-(pyrrolidin-1-ylmethyl)phenyl]piperidin-1-yl}carbonyl)furan-2-yl]methyl}benzenesulfonamide trifluoroacetamide]	6.00 to 7.00
COc1cc(C)c(S(=O)(=O)N(C)Cc2cc(C(=O)NCc3ccc(CNCc4ccncc4)cc3)co2)c(C)c1 [Ex 96, 5-({[(4-Methoxy-2,6-dimethylphenyl)sulfonyl](methyl)amino}methyl)-N-(4-{[(pyridin-4-ylmethyl)amino]methyl}benzyl)furan-3-carboxamide trifluoroacetate]	6.00 to 7.00
COc1cc(C)c(S(=O)(=O)N(C)Cc2cc(C(=O)NCc3ccc(CN4CCC4)cc3)co2)c(C)c1 [Ex 97, N-[4-(Azetidin-1-ylmethyl)benzyl]-5-({[(4-methoxy-2,6-dimethylphenyl)sulfonyl](methyl)amino}methyl)furan-3-carboxamide trifluoroacetate]	7.00 to 8.00
COc1cc(C)c(S(=O)(=O)N(C)Cc2cc(C(=O)N(C)CCc3ccc(C4=NCCN4C)cc3)co2)c(C)c1 [Ex 98, 5-({[(4-Methoxy-2,6-dimethylphenyl)sulfonyl](methyl)amino}methyl)-N-methyl-N-{2-[4-(1-methyl-4,5-dihydro-1H-imidazol-2-yl)phenyl]ethyl}furan-3-carboxamide trifluoroacetamide]	6.00 to 7.00
COc1cc(C)c(S(=O)(=O)N(C)Cc2cc(C(=O)NCc3ccc(CN4CCCCC4C)cc3)co2)c(C)c1 (stereo not shown) [Ex 99, 5-({[(4-Methoxy-2,6-dimethylphenyl)sulfonyl](methyl)amino}methyl)-N-{4-[(2-methylpiperidin-1-yl)methyl]benzyl}furan-3-carboxamide trifluoroacetate]	6.00 to 7.00
COc1cc(C)c(S(=O)(=O)N(C)Cc2cc(C(=O)NCc3ccc(CN4CCCCC4)cc3)co2)c(C)c1 [Ex 100, 5-({[(4-Methoxy-2,6-dimethylphenyl)sulfonyl](methyl)amino}methyl)-N-[4-(piperidin-1-ylmethyl)benzyl]furan-3-carboxamide trifluoroacetate]	6.00 to 7.00
COc1cc(C)c(S(=O)(=O)N(C)Cc2cc(C(=O)NCc3ccc(CN4CCCCCC4)cc3)co2)c(C)c1 [Ex 101, N-[4-(Azepan-1-ylmethyl)benzyl]-5-({[(4-methoxy-2,6-dimethylphenyl)sulfonyl](methyl)amino}methyl)furan-3-carboxamide trifluoroacetate]	6.00 to 7.00
